Data reported in patent US7736848B2, “Cellular targets for treatment of retroviral infection” (Fox Chase Cancer Center, priority 2002, dated 2010).
pIC50: −log10 of the molar value.

Key:
293T cells = assay: Cytotoxicity in 293T cells; conditions: conditions of the transduction test
DNA-PK = DNA-PK (Homo sapiens, UniProt P78527); conditions: cited from earlier work
HIV-1 strain NL4-3 = assay: 2-LTR DNA junctions (nuclear import) in NL4-3-infected PBMCs; assay type: cell-based; conditions: 24 hours post-infection
Excerpt: To determine if methylxanthines altered the nuclear import of HIV-1 pre-integration complexes (PICs), we analyzed the level of 2-LTR DNA junctions in infected cells by a quantitative DNA-PCR technique. […] To normalize the cell number, the human beta-globin gene was used as a standard (Nunnari et al., 2002, supra; Otero et al., 2003, supra).

ATR kinase = ATR kinase (Homo sapiens, UniProt Q13535); conditions: in vitro; read-out: IC50 for ATR kinase inhibition; cited from earlier work
mTOR = mTOR (Homo sapiens, UniProt P42345); conditions: cited from earlier work
HIV-1-based vector [1] = assay: Stable transduction of HeLa cells by HIV-1-lacZ vector; assay type: cell-based; conditions: Human immunodeficiency virus 1, HeLa, read-out: IC50, reduction in number of cells stably transduced by HIV-1 vector
Method: (§1) Infection of HeLa Cells. […] The virus-containing medium was then replaced with fresh medium. Two to seven days after infection with the HIV-1 vector (as indicated) cells were stained using a β-galactosidase assay (Stratagene). Cells were selected for G418 resistance one day after infection with the ASV vector by addition of 1 mg/ml G418.
(§2) After infection with ASV, G418 was also added at this time.
Transduction was measured five to six days later by the presence of β-galactosidase positive colonies.

ASV vector [2] = assay: Nuclear import: LTR-LTR circle junctions in ASV-infected HeLa cells; assay type: cell-based
HIV-1 NL4-3 (X4) strain = assay: HIV-1 NL4-3 replication in PBMCs (p24 antigen ELISA); assay type: cell-based; conditions: 4 mM; for drop in HIV-1 p24 antigen levels: 7 days post-infection; for p24 antigen levels vs control: 12 days post-infection; for decrease in HIV-1 p24 antigen vs NL4-3 infected control: day 3 post-infection; for inhibition of NL4-3 growth: p24 at 6 days post-infection
HIV-1-based vector [3] = assay: HIV-1 vector transduction of dividing and nocodazole-arrested 293T cells; assay type: cell-based
Method: To arrest cells in M phase, cells were treated with nocodazole (1 μg/ml) for 24 hrs prior to addition of the virus. Nocodazole was maintained in the cell culture medium during and after infection. Cells were distributed in a 24-well plate at a density of 5×10^4 cells per well and nocodazole was added to a final concentration of 1 μg/ml. […] Two days post-infection, cells were stained using a β-galactosidase assay (Stratagene according to manufacturer's protocol) and blue cells counted.

ASV vector [4] = assay: organism not typed; assay type: cell-based; conditions: HeLa, 24 h, read-out: inhibition of integration (host-viral junction DNA)
HIV-1-based vector [5] = assay: HIV-1 vector transduction of terminally differentiated primary macrophages; assay type: cell-based; conditions: caffeine 24 hrs
Method: Human peripheral blood mononuclear cells (PBMC) were isolated by centrifugation in Ficoll-Hypaque (Sigma, St. Louis, Mo., USA) from buffy coats of HIV-1 seronegative individuals. Monocyte-derived macrophages (MDM) were obtained from PBMC by adherence to plastic for 12 hours in DMEM supplemented with 10% human serum (Cellgro, Herndon, Va., USA), washed, and cultured in the same medium in the presence of macrophage colony-stimulating factor (MCSF, 2 ng/ml; Sigma, St. Louis, Mo., USA) for another 7-10 days, allowing cells to differentiate before infection. The medium was replaced twice during the incubation period. The primary cells were kept at 37° C. in a humidified incubator with 5% CO2.

ASV-based vector = assay: Stable transduction of HeLa cells by ASV neo vector; assay type: cell-based; conditions: 24 h, read-out: IC50, reduction in number of cells stably transduced by ASV vector
Method: as §1, §2

ATM kinase = ATM kinase (Homo sapiens, UniProt Q13315); conditions: in vitro; read-out: IC50 for ATM kinase inhibition; cited from earlier work
[6] = system: primary human macrophages; assay: Cytotoxicity in primary human macrophages; conditions: conditions of the transduction test
PBMC = conditions: at the utilized concentration (4 mM)
[7] = system: neomycin phosphotransferase II; assay: Expression of neo reporter in stably transduced HeLa cells (Western blot); assay type: cell-based; conditions: 24 hr, up to 4 mM caffeine
Method: Western Blot Analyses. […] Cells were then harvested, lysed, and lysates were subjected to electrophoresis in a 10% SDS polyacrylamide gel. The separated proteins were then transferred to a PVDF membrane and the filter was treated with neomycin phosphotransferase II antibody (Upstate Biotech). Bands were detected using a chemi-luminiscence assay.

HIV-1 integrase = target: T1, HIV-1 integrase (Human immunodeficiency virus type 1 group M subtype B, UniProt P04585); assay: In vitro integrase activity, HIV-1 integrase; assay type: biochemical; conditions: up to 10 mM
T1 construct: For HIV-1 integrase, reactions contained 1.0 M HIV IN
Method: For HIV-1 integrase, reactions contained […] HIV IN, 1.0 μM U5 21/21 substrate (Katz & Skalka, Ann. Rev. Biochem. 63: 133-173, 1994; Coffin et al., Retroviruses, Cold Spring Harbor Laboratory, 1997) in 22 mM Hepes, pH 7.5, 5.1 mM DTT, 6% glycerol, 6.66% DMSO, 50 mM KCl and 10 mM MnCl2. Conditions were as described for ASV IN, except that the final incubation time was 60 min.

ASV vector [8] = assay: Viral DNA synthesis in ASV-infected HeLa cells (real time PCR); assay type: cell-based; conditions: up to 4 mM; 24 hr post-infection
Method: Real Time PCR. Extrachromosomal DNA from infected and uninfected cells was prepared by HIRT extraction. Real-Time PCR amplification, data-acquisition and analysis were preformed with the Cephid Smart Cycler. The Biochemistry and Biotechnology Facility at the Fox Chase Cancer Center prepared the primers using BHQ-1 non-fluorogenic quencher (Biosearch Technologies). Viral sequence primers directed against ASV pol were selected using Primer Express™ (Applied Biosystems) and had the following sequences: Forward primer, 5′-[…]-3′ (SEQ ID NO:1); Reverse primer, 5′-[…]-3′ (SEQ ID NO:2); Probe, 5′-(FAM) CC […] (BHQ)-3′ (SEQ ID NO:3). Results were normalized with those from primers against mitochondrial DNA (Asaad et al., Oncogene 19: 5788-5800, 2000). Each reaction contained 1× Reaction Buffer (20 mM Tris-HCl, pH 8.4), 50 mM KCl), 0.25 mM each dNTP, 2.5 mM MgCl2, 400 nM primers, 200 nM probe and 2.5 U Platinum Taq Polymerase (Invitrogen). Relative quantitation was calculated with the Comparative Cycle Threshold Method using the untreated samples as the reference (User, B. ABI Prism 7700 Sequence Detection System; the Perkin Elmer Corporation, P/N 4303859 Rev. A. Stock No. 77802-001, 1997). […] Relative quantitation was averaged and standard deviations were determined between independent experiments.
Synthesis of viral DNA was detected by quantitative PCR.

HIV-1-based vector [9] = assay: Transduction of parental GM847 cells treated with doxycycline; assay type: cell-based
Excerpt: To examine the role of ATR more directly, the inventors examined the efficiency of retroviral DNA integration and transduction in cells defective in ATR function. […] Cells that synthesize the dominant-negative ATRkd protein (doxycycline-inducible expression) are viable, but show deficiencies in DNA repair that are distinct from those in cells deficient in ATM.
Because ATR was also implicated in the regulation of Vpr-induced G2/M arrest, transduction of ATRkd-expressing cells by the multiply attenuated HIV-1-based vector was also evaluated.

PCNA [10] = assay: PCNA Western blot in nocodazole-treated GM847/ATRkd cells; assay type: cell-based, human; conditions: nocodazole 1 μg/ml
Method: GM847/ATRkd cells were plated at a density of 2×10^4 cells per well of 24-well plate, in the presence or absence of doxycycline (5 μg/ml) and nocodazole (1 μg/ml).
To examine the role of ATR in growth-arrested cells, the GM847/ATRkd cells were treated with nocodazole in addition to doxycycline.

PCNA [11] = assay: PCNA Western blot in nocodazole-treated 293T cells; assay type: cell-based; conditions: nocodazole 1 μg/ml, 24 hrs
Method: To determine the efficiency of the nocodazole arrest, cells were assayed for expression of the proliferating-cell nuclear antigen (PCNA) by Western blotting with an anti-PCNA antibody. PCNA accumulates in cells as they enter S phase, but is rapidly degraded in other phases of the cell cycle. (Takase, K et al. Reversible G1 arrest induced by dimethyl sulfoxide in human lymphoid cell lines: kinetics of the arrest and expression of the cell cycle marker proliferating cell nuclear antigen in Raji cells. Cell Growth Differ 1992, 3:515-521).

[12] = system: retroviral transduction of HeLa cells; assay: Retroviral transduction of HeLa cells treated with mTOR inhibitor
Excerpt: To determine if mTOR is involved in retroviral transduction, the inventors infected HeLa cells and treated them with the mTOR-specific inhibitor, rapamycin.

[13] = system: macrophage-tropic (R5) HIV-1 strain, ADA; assay: HIV-1 ADA replication in PBMCs (p24 antigen); assay type: cell-based; conditions: Human immunodeficiency virus 1, PBMC, p24 at 6 days post-infection
[14] = system: BRCA1 phosphorylated on serine 1423; assay: BRCA1 serine 1423 phosphorylation in PBMCs (Western blot); assay type: cell-based, human
Excerpt: (§3) To establish if HIV-1 infection triggers the DNA damage response that is controlled by these kinases, human PBMCs were infected with the HIV-1 NL4-3 strain and analyzed by Western blotting to determine the levels of phosphorylation by ATM and ATR in these cells. Western blotting was sequentially performed with an anti pBRCA1 (Bethyl Laboratories, Montgomery, Tex., cat # A300-008A) or an anti-Ku86 antibody (Santa Cruz, sc-9034, Santa Cruz, Calif.). For detection of the p53 phosphorylated on serine 15 residue, Western blotting was performed with a rabbit polyclonal antibody from Cell Signaling Technology, Beverly, Mass. (cat # 9284S).

[15] = system: p53 phosphorylated on serine 15; assay: p53 serine 15 phosphorylation in NL4-3-infected PBMCs (Western blot); assay type: cell-based, human; conditions: 24 hrs
Excerpt: as §3

[16] = cited from earlier work

Chain of ATM kinase (Q13315 whole entry): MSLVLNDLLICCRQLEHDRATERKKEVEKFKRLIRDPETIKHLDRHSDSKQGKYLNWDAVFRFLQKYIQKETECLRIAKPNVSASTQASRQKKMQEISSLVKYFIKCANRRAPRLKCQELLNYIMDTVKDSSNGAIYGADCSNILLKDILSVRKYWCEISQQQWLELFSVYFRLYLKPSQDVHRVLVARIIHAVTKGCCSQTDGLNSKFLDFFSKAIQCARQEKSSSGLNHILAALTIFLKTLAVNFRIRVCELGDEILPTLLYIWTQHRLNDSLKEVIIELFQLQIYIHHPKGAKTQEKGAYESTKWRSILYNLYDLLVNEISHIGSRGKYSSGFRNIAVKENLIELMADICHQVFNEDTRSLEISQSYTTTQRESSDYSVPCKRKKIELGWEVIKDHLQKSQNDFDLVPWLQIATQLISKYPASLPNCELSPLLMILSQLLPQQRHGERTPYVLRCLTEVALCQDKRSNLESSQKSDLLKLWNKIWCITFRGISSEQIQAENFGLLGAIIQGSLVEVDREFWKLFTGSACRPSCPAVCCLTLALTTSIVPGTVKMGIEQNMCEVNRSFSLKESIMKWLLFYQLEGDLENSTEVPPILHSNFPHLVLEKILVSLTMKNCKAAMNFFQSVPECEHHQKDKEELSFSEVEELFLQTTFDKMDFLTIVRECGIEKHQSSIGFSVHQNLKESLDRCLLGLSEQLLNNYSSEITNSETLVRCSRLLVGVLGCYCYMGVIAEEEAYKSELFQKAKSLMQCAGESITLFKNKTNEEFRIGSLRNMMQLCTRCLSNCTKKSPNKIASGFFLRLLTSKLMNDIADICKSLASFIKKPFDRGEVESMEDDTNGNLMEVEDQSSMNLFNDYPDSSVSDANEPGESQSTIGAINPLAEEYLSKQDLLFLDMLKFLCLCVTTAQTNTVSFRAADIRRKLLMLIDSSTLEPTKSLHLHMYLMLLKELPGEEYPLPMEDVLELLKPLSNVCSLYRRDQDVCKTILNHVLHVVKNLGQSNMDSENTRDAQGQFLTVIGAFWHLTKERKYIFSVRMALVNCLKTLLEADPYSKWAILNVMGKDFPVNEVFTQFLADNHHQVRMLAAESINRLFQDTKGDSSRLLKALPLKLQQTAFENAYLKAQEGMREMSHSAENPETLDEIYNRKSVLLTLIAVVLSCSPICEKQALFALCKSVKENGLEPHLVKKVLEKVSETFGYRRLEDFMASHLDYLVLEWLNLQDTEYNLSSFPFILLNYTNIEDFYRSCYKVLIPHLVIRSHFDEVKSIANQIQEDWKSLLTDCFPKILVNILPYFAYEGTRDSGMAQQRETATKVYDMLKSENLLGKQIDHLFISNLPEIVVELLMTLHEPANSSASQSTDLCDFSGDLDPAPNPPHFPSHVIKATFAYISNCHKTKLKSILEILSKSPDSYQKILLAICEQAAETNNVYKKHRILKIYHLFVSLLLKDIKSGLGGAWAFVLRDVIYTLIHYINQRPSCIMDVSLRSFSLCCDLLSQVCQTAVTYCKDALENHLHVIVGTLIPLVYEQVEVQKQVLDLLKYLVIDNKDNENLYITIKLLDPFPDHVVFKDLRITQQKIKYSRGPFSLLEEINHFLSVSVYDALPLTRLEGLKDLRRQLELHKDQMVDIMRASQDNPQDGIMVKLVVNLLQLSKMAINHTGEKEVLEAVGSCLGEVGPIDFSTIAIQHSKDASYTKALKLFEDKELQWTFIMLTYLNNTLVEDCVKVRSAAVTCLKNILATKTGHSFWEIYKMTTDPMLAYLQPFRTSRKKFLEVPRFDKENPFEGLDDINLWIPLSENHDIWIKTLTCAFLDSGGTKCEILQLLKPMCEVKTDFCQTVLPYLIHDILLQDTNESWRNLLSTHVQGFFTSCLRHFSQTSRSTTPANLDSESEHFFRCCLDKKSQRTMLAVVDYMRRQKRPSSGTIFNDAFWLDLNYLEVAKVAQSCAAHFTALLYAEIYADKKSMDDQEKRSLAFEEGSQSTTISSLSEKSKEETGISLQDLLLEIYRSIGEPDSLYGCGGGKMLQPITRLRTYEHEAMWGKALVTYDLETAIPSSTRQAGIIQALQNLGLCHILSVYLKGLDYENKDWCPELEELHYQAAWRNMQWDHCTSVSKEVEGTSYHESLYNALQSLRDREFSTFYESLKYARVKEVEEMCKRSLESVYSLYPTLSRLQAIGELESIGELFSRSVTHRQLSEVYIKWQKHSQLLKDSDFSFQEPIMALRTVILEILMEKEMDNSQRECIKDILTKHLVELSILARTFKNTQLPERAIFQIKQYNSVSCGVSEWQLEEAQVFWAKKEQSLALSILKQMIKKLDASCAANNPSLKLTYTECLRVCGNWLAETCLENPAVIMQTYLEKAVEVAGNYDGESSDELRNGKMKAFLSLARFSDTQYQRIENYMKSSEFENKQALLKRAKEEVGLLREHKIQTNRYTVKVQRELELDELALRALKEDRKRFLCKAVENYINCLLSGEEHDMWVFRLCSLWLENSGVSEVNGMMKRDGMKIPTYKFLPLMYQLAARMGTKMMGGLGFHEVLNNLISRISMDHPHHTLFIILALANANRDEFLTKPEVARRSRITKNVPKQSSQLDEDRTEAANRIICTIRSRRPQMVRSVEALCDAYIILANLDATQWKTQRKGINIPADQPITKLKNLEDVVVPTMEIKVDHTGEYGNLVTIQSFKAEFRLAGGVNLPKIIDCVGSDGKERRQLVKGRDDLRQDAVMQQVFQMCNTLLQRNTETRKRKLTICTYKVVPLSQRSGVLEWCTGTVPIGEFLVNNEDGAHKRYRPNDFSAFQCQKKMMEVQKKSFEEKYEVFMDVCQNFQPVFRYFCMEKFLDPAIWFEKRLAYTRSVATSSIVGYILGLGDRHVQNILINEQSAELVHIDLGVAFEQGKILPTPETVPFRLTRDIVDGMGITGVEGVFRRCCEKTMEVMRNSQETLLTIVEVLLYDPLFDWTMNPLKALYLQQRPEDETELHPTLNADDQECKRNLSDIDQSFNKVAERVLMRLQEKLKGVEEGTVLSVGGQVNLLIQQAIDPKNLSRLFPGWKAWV

Cn1c(=O)c2c(ncn2C)n(C)c1=O [caffeine, 1,3,7-trimethylxanthine]
cytotoxicity (293T cells): No caffeine cytotoxicity | sensitivity of DNA-PK to caffeine (DNA-PK): not sensitive | level of 2-LTR junctions (HIV-1 strain NL4-3): No significant inhibitory effect | pIC50 (ATR kinase): 2.70 to 3.00 | inhibition of mTOR in vitro (mTOR): inhibits | pIC50 (HIV-1-based vector [1]): ~2.82 | formation of circle junctions (ASV vector [2]; 2 mM caffeine): not significantly affected | formation of circle junctions (ASV vector [2]; 4 mM caffeine): only a modest decrease | drop in HIV-1 p24 antigen levels (HIV-1 NL4-3 (X4) strain): three | p24 antigen levels vs control (HIV-1 NL4-3 (X4) strain): reached the control level | decrease in HIV-1 p24 antigen vs NL4-3 infected control (HIV-1 NL4-3 (X4) strain): 9 fold | inhibition of NL4-3 growth (HIV-1 NL4-3 (X4) strain): approximately 9 fold | transduction by multiply attenuated HIV-1-based vector (lacking vpr, vif, vpu, nef) (HIV-1-based vector [3]; 293T cells, dividing and nocodazole-arrested): inhibited | HIV-transduction of dividing cells (HIV-1-based vector [3]; exponentially dividing 293T cells, caffeine 24 h, dose-dependent): inhibited | HIV-transduction of nocodazole-arrested cells (HIV-1-based vector [3]; nocodazole-arrested 293T cells, caffeine 24 h, dose-dependent): inhibited | inhibition at 4000 µM (ASV vector [4]): 88% | transduction of terminally differentiated primary human macrophages (HIV-1-based vector [5]): inhibit | pIC50 (ASV-based vector): ~3.10 | pIC50 (ATM kinase): 2.70 to 3.00 | cytotoxicity [6]: no visible cytotoxicity | cellular cytotoxicity (XTT assay) (PBMC): did not show any significant cellular cytotoxicity | amount of reporter protein (neomycin phosphotransferase) [7]: no reduction | processing activity of HIV-1 integrase (HIV-1 integrase): unaffected | effect on amount of viral DNA detected (ASV vector [8]): only a modest effect

C[C@H]1c2cccc(O)c2C(=O)C2=C(O)[C@]3(O)C(=O)C(C(N)=O)=C(O)[C@@H](N(C)C)[C@@H]3[C@@H](O)[C@@H]21 [doxycycline]
effect on transduction of parental cells (HIV-1-based vector [9]): no effect

COC(=O)Nc1nc2ccc(C(=O)c3cccs3)cc2[nH]1 [nocodazole]
amount of PCNA relative to exponentially dividing cells (PCNA [10]): 10-20% | amount of PCNA relative to exponentially dividing cells (PCNA [11]): ≤ 5%

CO[C@H]1C[C@@H]2CC[C@@H](C)[C@@](O)(O2)C(=O)C(=O)N2CCCC[C@H]2C(=O)O[C@H]([C@H](C)C[C@@H]2CC[C@@H](O)[C@H](OC)C2)CC(=O)[C@H](C)/C=C(\C)[C@@H](O)[C@@H](OC)C(=O)[C@H](C)C[C@H](C)/C=C/C=C/C=C/1C [rapamycin]
effect on retroviral transduction [12]: no effect

Cn1cnc2c1c(=O)[nH]c(=O)n2C [theobromine, 3,7-dimethylxanthine]
inhibition of NL4-3 growth (HIV-1 NL4-3 (X4) strain): ~2 fold | pIC50 [13]: ~4.00

Cn1c(=O)c2[nH]cnc2n(C)c1=O [theophylline, 1,3-dimethylxanthine]
drop in HIV-1 p24 antigen levels (HIV-1 NL4-3 (X4) strain): four-fold | p24 antigen levels vs control (HIV-1 NL4-3 (X4) strain): reached the control level | decrease in HIV-1 p24 antigen vs NL4-3 infected control (HIV-1 NL4-3 (X4) strain): 9 fold | inhibition of NL4-3 growth (HIV-1 NL4-3 (X4) strain): ~5 fold | BRCA1 phosphorylation (serine 1423) ([14]; NL4-3-infected PBMCs, 24 hrs): suppressed | basal phosphorylation of BRCA1 on serine 1423 ([14]; PBMCs, basal): failed to suppress | pIC50 [13]: ~4.22 | p53 phosphorylation (serine 15) [15]: suppressed | cellular cytotoxicity (XTT assay) (PBMC): did not show any significant cellular cytotoxicity | concentration reached in plasma of theophylline-treated patients [16]: 28 to 110 µM
